Laboratory results taken from patent publication US9776972B2, “Pyrazole derivatives as arginine methyltransferase inhibitors and uses thereof” (priority 2013, dated 2017).
pIC50: −log10 of the molar value.

target: human PRMT3 (Homo sapiens, UniProt O60678); test: PRMT3 Biochemical Assay (3H-SAM Flashplate, peptide substrate); details: single experiment or average of multiple experiments
Sequence (O60678 with tags, fused parts or gaps): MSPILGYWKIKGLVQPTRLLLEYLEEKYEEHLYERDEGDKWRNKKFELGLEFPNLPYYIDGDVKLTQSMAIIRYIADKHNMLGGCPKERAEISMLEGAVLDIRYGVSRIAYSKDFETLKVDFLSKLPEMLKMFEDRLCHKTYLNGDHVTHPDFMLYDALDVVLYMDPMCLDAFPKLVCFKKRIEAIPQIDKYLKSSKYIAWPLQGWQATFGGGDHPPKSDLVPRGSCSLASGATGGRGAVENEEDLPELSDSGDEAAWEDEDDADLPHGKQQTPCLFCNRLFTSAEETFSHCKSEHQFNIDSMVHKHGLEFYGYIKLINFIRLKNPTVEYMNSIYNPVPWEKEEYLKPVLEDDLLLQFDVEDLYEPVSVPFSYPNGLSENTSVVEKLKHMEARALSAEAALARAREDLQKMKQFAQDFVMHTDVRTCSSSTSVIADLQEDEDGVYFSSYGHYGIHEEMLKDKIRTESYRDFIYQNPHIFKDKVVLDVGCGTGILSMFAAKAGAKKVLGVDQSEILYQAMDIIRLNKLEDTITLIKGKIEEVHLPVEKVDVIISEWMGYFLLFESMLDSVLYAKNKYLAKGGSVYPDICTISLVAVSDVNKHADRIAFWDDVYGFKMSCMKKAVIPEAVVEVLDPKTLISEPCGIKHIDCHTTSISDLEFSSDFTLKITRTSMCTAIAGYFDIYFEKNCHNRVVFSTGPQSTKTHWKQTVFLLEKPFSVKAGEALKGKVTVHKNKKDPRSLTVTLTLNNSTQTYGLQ

pIC50	Structure (SMILES)
6.60	CNCCN(C)Cc1c[nH]nc1-c1ccc(Oc2ccccc2)cc1 [Compound 37]
5.45	CCCc1ccc(-c2n[nH]cc2CN(C)CCNC)cc1 [Compound 20]
5.30	CNCCN(C)Cc1c[nH]nc1-c1ccc(F)c(F)c1 [Compound 51]
5.50	CNCCN(C)Cc1c[nH]nc1-c1ccc2ccccc2c1 [Compound 58]
5.72	CNCCN(C)Cc1c[nH]nc1-c1ccc(N)cc1 [Compound 33]
5.35	CNCCN(C)Cc1c[nH]nc1-c1ccc(F)cc1F [Compound 49]
5.36	CN(CCN)Cc1c[nH]nc1-c1ccc(C#N)cc1 [Compound 68]
6.69	CNCCN(C)Cc1c[nH]nc1-c1ccc(CO)cc1 [Compound 28]
5.48	CNCCN(C)Cc1c[nH]nc1-c1cccc2ccccc12 [Compound 57]
5.38	CCN(CCN)Cc1c[nH]nc1-c1ccc(F)cc1 [Compound 62]
5.64	CNCCN(C)Cc1c[nH]nc1-c1cccc([N+](=O)[O-])c1 [Compound 21]
5.28	CNCCN(C)Cc1c[nH]nc1-c1ccc(OC)c(F)c1 [Compound 52]

Structure (SMILES)	pIC50
CNCCN(C)Cc1c[nH]nc1-c1ccc(F)cc1 [Compound 2, N^1-((3-(4-fluorophenyl)-1H-pyrazol-4-yl)methyl)-N^1,N^2-dimethylethane-1,2-diamine]	5.35
CNCCN(C)Cc1c[nH]nc1-c1ccc(C(=O)c2ccccc2)cc1 [Compound 45]	5.26
